Measured values from PubChem BioAssay AID2060890 (Molecular Pharmacology Branch, DTP, NCI, 2025).
pIC50: −log10 of the molar value.

Test system: LG0703-F948-PDC complex spheroid viability
Test: Anticancer human tumor LG0703-F948-PDC patient-derived lung adenocarcinoma cell line growth inhibition [RAS]
Conditions: for pIC50: curve of first compound; for viability, T/C: stronger effect = lower value
Summary of the method: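 Multi-cell-type spheroids: tumor cells plus HUVEC endothelial cells and mesenchymal stem cells. RAS-pathway inhibitors were combined with targeted agents, each dosed in half-log steps down from clinical Cmax, or from 10 microM when Cmax was unknown.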

[1] = second compound 0.000949 µM, first compound 0.0316 µM
[2] = second compound 0.000949 µM, first compound 0.1 µM
[3] = second compound 0.000949 µM, first compound 0.316 µM
[4] = second compound 0.000949 µM, first compound 1 µM
[5] = second compound 0.000949 µM, first compound 3.16 µM
[6] = second compound 0.000949 µM, first compound 10 µM
[7] = second compound 0.003 µM, first compound 0.0316 µM
[8] = second compound 0.003 µM, first compound 0.1 µM
[9] = second compound 0.003 µM, first compound 0.316 µM
[10] = second compound 0.003 µM, first compound 1 µM
[11] = second compound 0.003 µM, first compound 3.16 µM
[12] = second compound 0.003 µM, first compound 10 µM
[13] = second compound 0.00949 µM, first compound 0.0316 µM
[14] = second compound 0.00949 µM, first compound 0.1 µM
[15] = second compound 0.00949 µM, first compound 0.316 µM
[16] = second compound 0.00949 µM, first compound 1 µM
[17] = second compound 0.00949 µM, first compound 3.16 µM
[18] = second compound 0.00949 µM, first compound 10 µM
[19] = second compound 0.03 µM, first compound 0.0316 µM
[20] = second compound 0.03 µM, first compound 0.1 µM
[21] = second compound 0.03 µM, first compound 0.316 µM
[22] = second compound 0.03 µM, first compound 1 µM
[23] = second compound 0.03 µM, first compound 3.16 µM
[24] = second compound 0.03 µM, first compound 10 µM
[25] = second compound 0.0949 µM, first compound 0.0316 µM
[26] = second compound 0.0949 µM, first compound 0.1 µM
[27] = second compound 0.0949 µM, first compound 0.316 µM
[28] = second compound 0.0949 µM, first compound 1 µM
[29] = second compound 0.0949 µM, first compound 3.16 µM
[30] = second compound 0.0949 µM, first compound 10 µM
[31] = second compound 0.3 µM, first compound 0.0316 µM
[32] = second compound 0.3 µM, first compound 0.1 µM
[33] = second compound 0.3 µM, first compound 0.316 µM
[34] = second compound 0.3 µM, first compound 1 µM
[35] = second compound 0.3 µM, first compound 3.16 µM
[36] = second compound 0.3 µM, first compound 10 µM
[37] = second compound 0.000949 µM, first compound 0.00316 µM
[38] = second compound 0.000949 µM, first compound 0.01 µM
[39] = second compound 0.003 µM, first compound 0.00316 µM
[40] = second compound 0.003 µM, first compound 0.01 µM
[41] = second compound 0.00949 µM, first compound 0.00316 µM
[42] = second compound 0.00949 µM, first compound 0.01 µM
[43] = second compound 0.03 µM, first compound 0.00316 µM
[44] = second compound 0.03 µM, first compound 0.01 µM
[45] = second compound 0.0949 µM, first compound 0.00316 µM
[46] = second compound 0.0949 µM, first compound 0.01 µM
[47] = second compound 0.3 µM, first compound 0.00316 µM
[48] = second compound 0.3 µM, first compound 0.01 µM
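Note: spheroids exposed to agents for 7 days.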
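Throughout, for viability, T/C: 100% = DMSO vehicle wells.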

CC(C)NCC(C(=O)N1CCN(c2ncnc3c2C(C)CC3O)CC1)c1ccc(Cl)cc1 (stereo not drawn) + CCn1c(-c2cccnc2C(C)OC)c2c3cc(ccc31)N1CCOC(CC(NC(=O)C(C(C)C)N(C)C(=O)C3(F)CCN(C(=O)C#CC(C)(C)N(C)C)CC3)C(=O)N3CCCC(N3)C(=O)OCC(C)(C)C2)C1
pIC50 (second compound 0.000949 µM): 5.74 | pIC50 (second compound 0.003 µM): 5.56 | pIC50 (second compound 0.00949 µM): 6.07 | pIC50 (second compound 0.03 µM): 5.85 | pIC50 (second compound 0.0949 µM): 6.29 | pIC50 (second compound 0.3 µM): > 7.50 | viability, T/C [1]: 103% | viability, T/C [2]: 86% | viability, T/C [3]: 73.6% | viability, T/C [4]: 51.9% | viability, T/C [5]: 47.4% | viability, T/C [6]: 35.6% | viability, T/C [7]: 104% | viability, T/C [8]: 79.8% | viability, T/C [9]: 77.9% | viability, T/C [10]: 56.3% | viability, T/C [11]: 50.8% | viability, T/C [12]: 38.4% | viability, T/C [13]: 100% | viability, T/C [14]: 98% | viability, T/C [15]: 65.5% | viability, T/C [16]: 49% | viability, T/C [17]: 52.5% | viability, T/C [18]: 39.3% | viability, T/C [19]: 99.3% | viability, T/C [20]: 86.4% | viability, T/C [21]: 67.9% | viability, T/C [22]: 53.3% | viability, T/C [23]: 43.1% | viability, T/C [24]: 35.1% | viability, T/C [25]: 74.8% | viability, T/C [26]: 66% | viability, T/C [27]: 51.3% | viability, T/C [28]: 42.4% | viability, T/C [29]: 42.5% | viability, T/C [30]: 28.9% | viability, T/C [31]: 46.8% | viability, T/C [32]: 38.6% | viability, T/C [33]: 33.6% | viability, T/C [34]: 23.8% | viability, T/C [35]: 27.4% | viability, T/C [36]: 15.5%

CC(C)n1nc(-c2ccc3oc(N)nc3c2)c2c(N)ncnc21 + CCn1c(-c2cccnc2C(C)OC)c2c3cc(ccc31)N1CCOC(CC(NC(=O)C(C(C)C)N(C)C(=O)C3(F)CCN(C(=O)C#CC(C)(C)N(C)C)CC3)C(=O)N3CCCC(N3)C(=O)OCC(C)(C)C2)C1
pIC50 (second compound 0.000949 µM): 8.22 | pIC50 (second compound 0.003 µM): 8.08 | pIC50 (second compound 0.00949 µM): 8.11 | pIC50 (second compound 0.03 µM): 8.09 | pIC50 (second compound 0.0949 µM): 8.73 | pIC50 (second compound 0.3 µM): > 9.50 | viability, T/C (second compound 0.000949 µM, first compound 0.000316 µM): 105% | viability, T/C (second compound 0.000949 µM, first compound 0.001 µM): 72.7% | viability, T/C [37]: 64.1% | viability, T/C [38]: 43.5% | viability, T/C [1]: 27% | viability, T/C [2]: 19.9% | viability, T/C (second compound 0.003 µM, first compound 0.000316 µM): 87% | viability, T/C (second compound 0.003 µM, first compound 0.001 µM): 79.4% | viability, T/C [39]: 65% | viability, T/C [40]: 49.8% | viability, T/C [7]: 25.5% | viability, T/C [8]: 17.9% | viability, T/C (second compound 0.00949 µM, first compound 0.000316 µM): 88.2% | viability, T/C (second compound 0.00949 µM, first compound 0.001 µM): 83.8% | viability, T/C [41]: 59.9% | viability, T/C [42]: 48.2% | viability, T/C [13]: 28.7% | viability, T/C [14]: 17.2% | viability, T/C (second compound 0.03 µM, first compound 0.000316 µM): 92.4% | viability, T/C (second compound 0.03 µM, first compound 0.001 µM): 87.6% | viability, T/C [43]: 68.8% | viability, T/C [44]: 46.8% | viability, T/C [19]: 23.9% | viability, T/C [20]: 15.6% | viability, T/C (second compound 0.0949 µM, first compound 0.000316 µM): 67.4% | viability, T/C (second compound 0.0949 µM, first compound 0.001 µM): 57.5% | viability, T/C [45]: 41.2% | viability, T/C [46]: 36.8% | viability, T/C [25]: 18.5% | viability, T/C [26]: 13.2% | viability, T/C (second compound 0.3 µM, first compound 0.000316 µM): 43.3% | viability, T/C (second compound 0.3 µM, first compound 0.001 µM): 36.8% | viability, T/C [47]: 29.3% | viability, T/C [48]: 21.9% | viability, T/C [31]: 11.7% | viability, T/C [32]: 8.29%

CC(Nc1ccc2c(c1)OCCn1cc(N3C(=O)OCC3C(F)F)nc1-2)C(N)=O (stereo not drawn) + CCn1c(-c2cccnc2C(C)OC)c2c3cc(ccc31)N1CCOC(CC(NC(=O)C(C(C)C)N(C)C(=O)C3(F)CCN(C(=O)C#CC(C)(C)N(C)C)CC3)C(=O)N3CCCC(N3)C(=O)OCC(C)(C)C2)C1
pIC50 (second compound 0.000949 µM): 5.59 | pIC50 (second compound 0.003 µM): 5.65 | pIC50 (second compound 0.00949 µM): 5.67 | pIC50 (second compound 0.03 µM): 5.92 | pIC50 (second compound 0.0949 µM): 6.41 | pIC50 (second compound 0.3 µM): > 7.50 | viability, T/C [1]: 101% | viability, T/C [2]: 82.3% | viability, T/C [3]: 89.8% | viability, T/C [4]: 63.6% | viability, T/C [5]: 46.5% | viability, T/C [6]: 24.1% | viability, T/C [7]: 102% | viability, T/C [8]: 86.6% | viability, T/C [9]: 72.8% | viability, T/C [10]: 61.8% | viability, T/C [11]: 45.4% | viability, T/C [12]: 32.6% | viability, T/C [13]: 102% | viability, T/C [14]: 83.2% | viability, T/C [15]: 77.8% | viability, T/C [16]: 54.6% | viability, T/C [17]: 52.7% | viability, T/C [18]: 25.4% | viability, T/C [19]: 100% | viability, T/C [20]: 81.7% | viability, T/C [21]: 60.8% | viability, T/C [22]: 56.5% | viability, T/C [23]: 41.5% | viability, T/C [24]: 23.3% | viability, T/C [25]: 74.1% | viability, T/C [26]: 64.8% | viability, T/C [27]: 54.3% | viability, T/C [28]: 35.2% | viability, T/C [29]: 31.7% | viability, T/C [30]: 19.9% | viability, T/C [31]: 41.6% | viability, T/C [32]: 32.1% | viability, T/C [33]: 24.8% | viability, T/C [34]: 18.8% | viability, T/C [35]: 15.4% | viability, T/C [36]: 10.1%

O=C(c1ccc(F)c(F)c1Nc1ccc(I)cc1F)N1CC(O)([C@@H]2CCCCN2)C1 + CCn1c(-c2cccnc2C(C)OC)c2c3cc(ccc31)N1CCOC(CC(NC(=O)C(C(C)C)N(C)C(=O)C3(F)CCN(C(=O)C#CC(C)(C)N(C)C)CC3)C(=O)N3CCCC(N3)C(=O)OCC(C)(C)C2)C1
pIC50 (second compound 0.000949 µM): 7.10 | pIC50 (second compound 0.003 µM): 7.19 | pIC50 (second compound 0.00949 µM): 7.06 | pIC50 (second compound 0.03 µM): 7.19 | pIC50 (second compound 0.0949 µM): 7.64 | pIC50 (second compound 0.3 µM): > 8.50 | viability, T/C [37]: 93.7% | viability, T/C [38]: 93.3% | viability, T/C [1]: 64.2% | viability, T/C [2]: 48.2% | viability, T/C [3]: 33.4% | viability, T/C [4]: 28.2% | viability, T/C [39]: 97.1% | viability, T/C [40]: 79.8% | viability, T/C [7]: 60.5% | viability, T/C [8]: 40.7% | viability, T/C [9]: 38.4% | viability, T/C [10]: 27.2% | viability, T/C [41]: 87.3% | viability, T/C [42]: 88.3% | viability, T/C [13]: 70% | viability, T/C [14]: 46.9% | viability, T/C [15]: 30.6% | viability, T/C [16]: 21.6% | viability, T/C [43]: 96.2% | viability, T/C [44]: 76.1% | viability, T/C [19]: 60.9% | viability, T/C [20]: 42.7% | viability, T/C [21]: 33.1% | viability, T/C [22]: 21.9% | viability, T/C [45]: 69.4% | viability, T/C [46]: 61% | viability, T/C [25]: 44.2% | viability, T/C [26]: 33.5% | viability, T/C [27]: 20.9% | viability, T/C [28]: 12.4% | viability, T/C [47]: 41.6% | viability, T/C [48]: 35.4% | viability, T/C [31]: 24% | viability, T/C [32]: 13.1% | viability, T/C [33]: 13.1% | viability, T/C [34]: 5.27%
